Results reported in ChEMBL document CHEMBL5104090, “Recent advances in the medicinal chemistry of carbonic anhydrase inhibitors” (Eur J Med Chem, 2021).
pKi: −log10 of the molar value. Values belong to the compound of their own block, whether it stands above or below them.

Columns and labels:
Carbonic anhydrase 2 = Carbonic anhydrase 2 (Homo sapiens, UniProt P00918)
Carbonic anhydrase 1 [1] = target: T1, Carbonic anhydrase 1 (Homo sapiens, UniProt P00915)
Carbonic anhydrase 9 [2] = target: T2, Carbonic anhydrase 9 (Homo sapiens, UniProt Q16790)
Carbonic anhydrase 9 [3] = target: T2, Carbonic anhydrase 9; remark: listed apart in the source
Carbonic anhydrase 12 = Carbonic anhydrase 12 (Homo sapiens, UniProt O43570)
Chain of Carbonic anhydrase 12 (O43570 whole entry): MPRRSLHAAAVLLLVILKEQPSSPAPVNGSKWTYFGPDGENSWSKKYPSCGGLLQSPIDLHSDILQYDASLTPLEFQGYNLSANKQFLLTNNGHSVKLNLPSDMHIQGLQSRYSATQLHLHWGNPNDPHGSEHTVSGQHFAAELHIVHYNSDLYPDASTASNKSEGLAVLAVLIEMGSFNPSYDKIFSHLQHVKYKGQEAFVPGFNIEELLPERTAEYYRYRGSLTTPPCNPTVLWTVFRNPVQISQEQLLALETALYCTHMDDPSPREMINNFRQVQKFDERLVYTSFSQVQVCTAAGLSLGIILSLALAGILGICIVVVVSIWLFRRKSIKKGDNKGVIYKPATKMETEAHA

Carbonic anhydrase 1 [4] = target: T1, Carbonic anhydrase 1; remark: listed apart in the source
Ca9-22 = assay: cells; format: functional; settings: Homo sapiens, time 48 hrs
Description: Cytotoxicity against human Ca9-22 cells assessed as cell growth inhibition measured after 48 hrs by MTT assay

Carbonic anhydrase 4 = Carbonic anhydrase 4 (Homo sapiens, UniProt P22748)
Chain of Carbonic anhydrase 4 (P22748 whole entry): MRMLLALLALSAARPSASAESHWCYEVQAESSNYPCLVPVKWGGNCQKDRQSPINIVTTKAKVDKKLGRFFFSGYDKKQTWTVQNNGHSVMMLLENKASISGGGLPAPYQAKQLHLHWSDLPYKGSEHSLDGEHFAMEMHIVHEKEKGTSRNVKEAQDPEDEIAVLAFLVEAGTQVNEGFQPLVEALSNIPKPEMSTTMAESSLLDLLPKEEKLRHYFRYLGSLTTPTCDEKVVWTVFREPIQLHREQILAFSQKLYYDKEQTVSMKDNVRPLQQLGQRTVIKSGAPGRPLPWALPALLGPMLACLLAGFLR

T1 sequence (P00915 whole entry): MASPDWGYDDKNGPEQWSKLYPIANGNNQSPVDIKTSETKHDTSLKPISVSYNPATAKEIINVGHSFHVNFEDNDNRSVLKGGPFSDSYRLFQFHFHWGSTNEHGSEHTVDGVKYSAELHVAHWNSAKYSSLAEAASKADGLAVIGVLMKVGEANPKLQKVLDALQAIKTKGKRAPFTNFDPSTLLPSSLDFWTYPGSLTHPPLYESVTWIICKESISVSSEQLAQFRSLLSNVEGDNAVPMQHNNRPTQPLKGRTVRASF

pKi (Carbonic anhydrase 2): < 4.00
pKi (Carbonic anhydrase 1 [1]): < 4.00
Compound: O=S1(=O)CC=Cc2cccc(-c3ccc(C(F)(F)F)cc3)c2O1

pKi (Carbonic anhydrase 9 [2]): 9.68
Compound: NS(=O)(=O)c1ccc(N/C=C/C(=O)c2ccccc2)cc1

pKi (Carbonic anhydrase 9 [3]): 7.86
pKi (Carbonic anhydrase 12): 7.46
Compound: C=CCN1C(=O)/C(=N\c2ccc(S(N)(=O)=O)cc2)c2ccccc21

pKi (Carbonic anhydrase 2): < 4.00
pKi (Carbonic anhydrase 1 [1]): < 4.00
Compound: COc1ccc(-c2ccc3c(c2)OS(=O)(=O)CC=C3)cc1

pKi (Carbonic anhydrase 9 [3]): < 7.36
pKi (Carbonic anhydrase 1 [4]): < 6.64
pKi (Carbonic anhydrase 12): < 8.05
Compound: COc1cc(C2CC(c3ccccc3)=NN2c2ccc(S(N)(=O)=O)cc2)cc(OC)c1OC (stereo unspecified)
CC50 (Ca9-22): 6.3 µM

pKi (Carbonic anhydrase 12): 7.65
Compound: COc1ccc(C(=O)N2C(=O)/C(=N\NC(=O)CNc3ccc(S(N)(=O)=O)cc3)c3ccccc32)cc1

pKi (Carbonic anhydrase 2): < 4.00
pKi (Carbonic anhydrase 1 [1]): < 4.00
Compound: CCOC(=O)c1ccc(-c2ccc3c(c2)C=CCS(=O)(=O)O3)cc1

pKi (Carbonic anhydrase 9 [3]): < 7.36
pKi (Carbonic anhydrase 1 [4]): < 6.64
pKi (Carbonic anhydrase 12): < 8.05
Compound: COc1cc(OC)c(C2CC(c3ccc(Cl)cc3)=NN2c2ccc(S(N)(=O)=O)cc2)cc1OC (stereo unspecified)
CC50 (Ca9-22): 6.3 µM

pKi (Carbonic anhydrase 4): 8.19
Compound: NS(=O)(=O)c1cccc(N/C=C/C(=O)c2ccc([N+](=O)[O-])cc2)c1

pKi (Carbonic anhydrase 2): < 4.00
pKi (Carbonic anhydrase 1 [1]): < 4.00
Compound: O=S1(=O)CC=Cc2cc(-c3ccc(F)cc3)ccc2O1

pKi (Carbonic anhydrase 2): < 4.00
pKi (Carbonic anhydrase 1 [1]): < 4.00
Compound: O=S1(=O)CC=Cc2ccc(-c3ccccc3)cc2O1

pKi (Carbonic anhydrase 9 [3]): < 7.36
pKi (Carbonic anhydrase 1 [4]): < 6.64
pKi (Carbonic anhydrase 12): < 8.05
Compound: COc1ccc(C2CC(c3ccc(Br)cc3)=NN2c2ccc(S(N)(=O)=O)cc2)c(OC)c1OC (stereo unspecified)
CC50 (Ca9-22): 6.3 µM

pKi (Carbonic anhydrase 9 [3]): < 7.36
pKi (Carbonic anhydrase 1 [4]): < 6.64
pKi (Carbonic anhydrase 12): < 8.05
Compound: COc1cc(OC)c(C2CC(c3ccc(C(F)(F)F)cc3)=NN2c2ccc(S(N)(=O)=O)cc2)cc1OC (stereo unspecified)
CC50 (Ca9-22): 6.3 µM

pKi (Carbonic anhydrase 9 [3]): 6.77
Compound: C/C(=N\NC(=O)c1ccc(S(N)(=O)=O)cc1)c1ccc(N2C(=O)c3cc(Cl)c(Cl)cc3C2=O)cc1

pKi (Carbonic anhydrase 9 [3]): 6.77
Compound: C/C(=N\O)c1ccc(N2C(=O)c3ccc(C(=O)O)cc3C2=O)cc1

pKi (Carbonic anhydrase 12): 7.46
Compound: CCN1C(=O)/C(=N\NC(=O)CNc2ccc(S(N)(=O)=O)cc2)c2ccccc21

pKi (Carbonic anhydrase 12): 7.46
Compound: NS(=O)(=O)c1ccc(NCC(=O)N/N=C2\C(=O)Nc3ccccc32)cc1

pKi (Carbonic anhydrase 9 [3]): 6.77
Compound: C/C(=N\O)c1ccc(N2C(=O)c3c(Br)c(Br)c(Br)c(Br)c3C2=O)cc1

pKi (Carbonic anhydrase 9 [3]): < 7.36
pKi (Carbonic anhydrase 1 [4]): < 6.64
pKi (Carbonic anhydrase 12): < 8.05
Compound: COc1cc(C2CC(c3ccc(Br)cc3)=NN2c2ccc(S(N)(=O)=O)cc2)cc(OC)c1OC (stereo unspecified)
CC50 (Ca9-22): 6.3 µM

pKi (Carbonic anhydrase 4): 8.06
Compound: NS(=O)(=O)c1cccc(N/C=C/C(=O)c2cccs2)c1

pKi (Carbonic anhydrase 9 [3]): 7.76
Compound: C/C(=N\NC(=O)c1ccc(S(N)(=O)=O)cc1)c1ccc(N2C(=O)c3ccccc3C2=O)cc1

pKi (Carbonic anhydrase 2): < 4.00
pKi (Carbonic anhydrase 1 [1]): < 4.00
Compound: O=S1(=O)CC=Cc2ccc(Br)cc2O1

pKi (Carbonic anhydrase 9 [3]): 7.86
Compound: CN1C(=O)/C(=N\Nc2ccc(S(N)(=O)=O)cc2)c2ccccc21

pKi (Carbonic anhydrase 9 [3]): 6.77
Compound: C/C(=N\O)c1ccc(N2C(=O)c3c(Cl)c(Cl)c(Cl)c(Cl)c3C2=O)cc1

pKi (Carbonic anhydrase 9 [3]): 6.77
Compound: C/C(=N\O)c1ccc(N2C(=O)c3ccc(C)cc3C2=O)cc1

pKi (Carbonic anhydrase 9 [3]): < 7.36
pKi (Carbonic anhydrase 1 [4]): < 6.64
pKi (Carbonic anhydrase 12): < 8.05
Compound: COc1ccc(C2CC(c3ccc(F)cc3)=NN2c2ccc(S(N)(=O)=O)cc2)c(OC)c1OC (stereo unspecified)
CC50 (Ca9-22): 6.3 µM

pKi (Carbonic anhydrase 9 [3]): 7.86
pKi (Carbonic anhydrase 12): 7.46
Compound: CN1C(=O)/C(=N\NC(=O)CNc2ccc(S(N)(=O)=O)cc2)c2ccccc21

pKi (Carbonic anhydrase 4): 8.19
Compound: Cc1ccc(C(=O)/C=C/Nc2cccc(S(N)(=O)=O)c2)cc1

pKi (Carbonic anhydrase 2): < 4.00
pKi (Carbonic anhydrase 1 [1]): < 4.00
Compound: CCOC(=O)c1ccc(-c2ccc3c(c2)OS(=O)(=O)CC=C3)cc1

pKi (Carbonic anhydrase 9 [3]): < 7.36
pKi (Carbonic anhydrase 1 [4]): < 6.64
pKi (Carbonic anhydrase 12): < 8.05
Compound: COc1ccc(C2CC(c3ccc(C(F)(F)F)cc3)=NN2c2ccc(S(N)(=O)=O)cc2)c(OC)c1OC (stereo unspecified)
CC50 (Ca9-22): 6.3 µM

pKi (Carbonic anhydrase 2): < 4.00
pKi (Carbonic anhydrase 1 [1]): < 4.00
Compound: O=S1(=O)CC=Cc2ccc(-c3ccc(C(F)(F)F)cc3)cc2O1

pKi (Carbonic anhydrase 9 [3]): < 7.36
pKi (Carbonic anhydrase 1 [4]): < 6.64
pKi (Carbonic anhydrase 12): < 8.05
Compound: COc1ccc(C2CC(c3ccccc3)=NN2c2ccc(S(N)(=O)=O)cc2)c(OC)c1OC (stereo unspecified)
CC50 (Ca9-22): 6.3 µM

pKi (Carbonic anhydrase 9 [3]): 7.76
Compound: C/C(=N\NC(=O)c1ccc(S(N)(=O)=O)cc1)c1ccc(N2C(=O)C3CC=CCC3C2=O)cc1 (stereo unspecified)

pKi (Carbonic anhydrase 12): 8.13
Compound: CC(C)[C@@H](CC(=O)[C@@H](C)CC(=O)OCc1ccccc1)C(=O)NCc1ccc(S(N)(=O)=O)cc1

pKi (Carbonic anhydrase 9 [3]): 7.86
pKi (Carbonic anhydrase 12): 7.46
Compound: C=CCN1C(=O)/C(=N\NC(=O)CNc2ccc(S(N)(=O)=O)cc2)c2ccccc21

pKi (Carbonic anhydrase 9 [3]): < 7.36
pKi (Carbonic anhydrase 1 [4]): < 6.64
pKi (Carbonic anhydrase 12): < 8.05
Compound: COc1cc(OC)c(C2CC(c3ccccc3)=NN2c2ccc(S(N)(=O)=O)cc2)cc1OC (stereo unspecified)
CC50 (Ca9-22): 6.3 µM

pKi (Carbonic anhydrase 4): 8.19
Compound: NS(=O)(=O)c1cccc(N/C=C/C(=O)c2ccc3ccccc3c2)c1

pKi (Carbonic anhydrase 9 [3]): 7.76
Compound: C/C(=N\NC(=O)c1ccc(S(N)(=O)=O)cc1)c1ccc(N2C(=O)c3ccc(C(=O)O)cc3C2=O)cc1

pKi (Carbonic anhydrase 9 [3]): < 7.36
pKi (Carbonic anhydrase 1 [4]): < 6.64
pKi (Carbonic anhydrase 12): < 8.05
Compound: COc1ccc(C2CC(c3cccs3)=NN2c2ccc(S(N)(=O)=O)cc2)c(OC)c1OC (stereo unspecified)
CC50 (Ca9-22): 6.3 µM

pKi (Carbonic anhydrase 9 [3]): 7.86
Compound: NS(=O)(=O)c1ccc(N/N=C2\C(=O)N(Cc3ccccc3)c3ccccc32)cc1
